# Legend:
# human recombinant PLK4 = human recombinant PLK4 (Homo sapiens (Human), UniProt O00444); test: PLK4 Biochemical Assay (ADP-Glo); conditions: 0.5 nM PLK4, 8.0 µM ATP, 4.7 µM MBP, 6 hours at RT
# Experimental: (§1) Activity of human recombinant PLK4 (ThermoFisher, cat #PV6396) was measured by quantification of adenosine diphosphate (ADP) using the ADP-Glo Kinase Assay Kit (Promega, cat #V9102). […] 5 µL of 1.0 nM PLK4 protein in assay buffer (50 mM HEPES, pH 7.5, 0.01% Brij-35, 0.01% BSA, 10 mM MgCl2, 1 mM EGTA, 1 mM DTT) was added to the plates. Test compounds and PLK4 were incubated for 15 minutes at room temperature (RT). […] Reactions were stopped and the remaining ATP depleted by adding 10 µL of ADP-Glo reagent (Promega, cat#V912B) and incubating for 40 minutes at RT. The simultaneous conversion of the remaining ADP to ATP and measurement of the newly synthesized ATP was achieved by addition of 20 µL Kinase Detection reagent (Promega, cat #V914B), incubation for 30 min at RT, and luminescence detection using the EnVision plate reader (PerkinElmer). […] The IC50 values reported in Table 2 were determined using four parameter non-linear regression curve fit.
# [1] = target: human recombinant Aurora A (Homo sapiens (Human), UniProt O14965); test: Aurora A Kinase Biochemical Assay (ADP-Glo); conditions: ratio of Aurora A IC50 to PLK4 IC50 (selectivity)
# Experimental: as §1, with “Aurora A” for “PLK4”, “#PR5935A)” for “#PV6396)”, “5.0” for “1.0”, “Aurora A” for “PLK4 protein”, “10uL” for “10 µL”
# [2] = target: human recombinant Aurora B (Homo sapiens (Human), UniProt Q96GD4); test: Aurora B Kinase Biochemical Assay (ADP-Glo); conditions: ratio of Aurora B IC50 to PLK4 IC50 (selectivity)
# Experimental: as §1, with “Aurora B” for “PLK4”, “#PR9210B)” for “#PV6396)”, “20” for “1.0”, “Aurora B” for “PLK4 protein”, “10uL” for “10 µL”
# Sequence of human recombinant PLK4 (O00444 whole entry): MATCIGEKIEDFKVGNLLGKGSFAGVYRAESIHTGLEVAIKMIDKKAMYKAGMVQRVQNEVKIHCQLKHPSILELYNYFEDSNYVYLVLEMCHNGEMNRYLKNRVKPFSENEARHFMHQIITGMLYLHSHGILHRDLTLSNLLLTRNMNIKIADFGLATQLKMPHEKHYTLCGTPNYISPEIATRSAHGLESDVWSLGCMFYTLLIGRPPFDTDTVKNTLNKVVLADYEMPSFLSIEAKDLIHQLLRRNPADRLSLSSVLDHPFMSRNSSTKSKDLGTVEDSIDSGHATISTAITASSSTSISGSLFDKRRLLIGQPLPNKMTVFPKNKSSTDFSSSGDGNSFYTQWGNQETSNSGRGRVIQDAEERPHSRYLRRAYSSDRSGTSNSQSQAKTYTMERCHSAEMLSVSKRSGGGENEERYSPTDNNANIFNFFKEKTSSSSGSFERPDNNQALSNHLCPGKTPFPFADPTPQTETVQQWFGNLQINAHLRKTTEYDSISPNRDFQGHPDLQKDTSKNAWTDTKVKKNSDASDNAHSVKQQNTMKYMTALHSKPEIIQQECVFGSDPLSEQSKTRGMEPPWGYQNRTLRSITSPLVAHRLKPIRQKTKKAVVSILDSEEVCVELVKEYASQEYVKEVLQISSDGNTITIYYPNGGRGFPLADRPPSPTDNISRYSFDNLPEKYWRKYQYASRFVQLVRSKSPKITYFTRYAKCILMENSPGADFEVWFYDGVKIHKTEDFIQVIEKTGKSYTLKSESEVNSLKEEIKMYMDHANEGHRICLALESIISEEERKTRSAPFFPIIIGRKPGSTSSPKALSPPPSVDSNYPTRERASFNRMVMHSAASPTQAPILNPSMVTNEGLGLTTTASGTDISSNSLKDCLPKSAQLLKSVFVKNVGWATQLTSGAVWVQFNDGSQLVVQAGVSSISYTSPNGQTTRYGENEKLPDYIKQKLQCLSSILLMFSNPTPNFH
# Sequence of human recombinant Aurora B (Q96GD4 whole entry): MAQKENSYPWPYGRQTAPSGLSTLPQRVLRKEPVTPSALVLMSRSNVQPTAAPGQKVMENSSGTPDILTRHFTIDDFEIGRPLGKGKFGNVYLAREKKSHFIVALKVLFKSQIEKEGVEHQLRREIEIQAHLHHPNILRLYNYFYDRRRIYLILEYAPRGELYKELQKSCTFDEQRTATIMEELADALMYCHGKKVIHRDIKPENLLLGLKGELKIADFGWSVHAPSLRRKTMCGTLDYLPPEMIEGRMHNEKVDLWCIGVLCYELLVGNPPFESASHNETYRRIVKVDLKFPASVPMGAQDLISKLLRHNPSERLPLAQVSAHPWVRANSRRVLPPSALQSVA
# Sequence of human recombinant Aurora A (O14965 whole entry): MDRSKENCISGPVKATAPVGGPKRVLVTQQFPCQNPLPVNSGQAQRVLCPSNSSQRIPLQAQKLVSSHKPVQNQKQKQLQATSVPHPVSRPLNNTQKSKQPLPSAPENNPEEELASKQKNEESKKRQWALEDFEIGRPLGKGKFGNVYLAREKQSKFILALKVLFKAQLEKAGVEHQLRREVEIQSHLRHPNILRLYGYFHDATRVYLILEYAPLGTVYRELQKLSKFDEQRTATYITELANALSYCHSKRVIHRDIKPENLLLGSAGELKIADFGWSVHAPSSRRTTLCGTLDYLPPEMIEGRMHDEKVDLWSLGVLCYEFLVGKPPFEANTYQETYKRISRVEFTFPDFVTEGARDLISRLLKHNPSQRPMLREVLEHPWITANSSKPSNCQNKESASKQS
IC50 (human recombinant PLK4),[Aurora A IC50 (nM)]/[PLK4 IC50 (nM)] [1],[Aurora B IC50 (nM)]/[PLK4 IC50 (nM)] [2],Structure (SMILES)
19.1 nM,253.4031,53.19,"COc1ccc2c(c1)[C@]1(C[C@H]1c1ccc3c(Nc4nc(Cl)c(OC)c(N5CCOCC5)n4)n[nH]c3c1)C(=O)N2 [Example 49, (1R,2S)-2-(3-{[4-chloro-5-methoxy-6-(morpholin-4-yl)pyrimidin-2-yl]amino}-1H-indazol-6-yl)-5′-metboxyspiro[cydopropane-1,3′-indol]-2′(1′H)-one]"
61.7 nM,361.809,27.4923,"COc1ccc2c(c1)[C@]1(C[C@H]1c1ccc3c(Nc4cn(CCO)nc4OC)n[nH]c3c1)C(=O)N2 [Example 50, (1R,2S)-2-(3-{[1-(2-hydroxyethyl)-3-methoxy-1H-pyrazol-4-yl]amino}-1H-indazol-6-yl)-S′-methoxyspiro[cyclopropane-1,3′-indol]-2′(1′H)-one]"
1.25 nM,4028.777,251.7986,COc1ccc2c(c1)[C@]1(C[C@H]1c1ccc3c(Nc4ncnc(N5CCS(=O)(=O)CC5)c4Cl)n[nH]c3c1)C(=O)N2 [Example 53]
1.25 nM,3251.804,17.9,"COc1ccc2c(c1)[C@]1(C[C@H]1c1ccc3c(Nc4ncc(CCO)nc4OC)n[nH]c3c1)C(=O)N2 [Example 55, (lR,2S)-2-(3-{[5-(2-hydroxyethyl)-3-methoxypyrazin-2-yl]amino}-1H-indazol-6-yl)-5′-methozyspiro[cyclopropano-1,3′-indol]-2′(1′H)-one]"
8.44 nM,108.4696,39.23,"COc1ccc2c(c1)[C@]1(C[C@H]1c1ccc3c(Nc4cc(N5CCS(=O)(=O)CC5)nc(C5CC5)n4)n[nH]c3c1)C(=O)N2 [Example 59, (1R,2S)-2-(3-((2-cyclopropyl-6-(1,1-dioxidothiomorpholino)pyrimidin-4-yl)amino)-1H-indazol-6-yl)-5′-methoxyspiro[cyclopropane-1,3′-indolin]-2′-one]"
7.36 nM,69.69,7.855,"COc1ccc2c(c1)[C@]1(C[C@H]1c1ccc3c(Nc4cc(N5CCS(=O)(=O)CC5)nc(C)n4)n[nH]c3c1)C(=O)N2 [Example 60, (1R,2S)-2-(3-((6-(1,1-dioxidothiomorpholino)-2-methylpyrimidin-4-yl)amino)-1H-indazol-6-yl)-5′-methoxyspiro[cyclopropane-1,3′-indolin]-2′-one]"
72.2 nM,56.84,16.69,"COc1ccc2c(c1)[C@]1(C[C@H]1c1ccc3c(Nc4cn(C)nc4C)n[nH]c3c1)C(=O)N2 [Example 63, (1R,2S)-2-{3-[(1,3-dimethyl-1H-pyrazol-4-yl)amino]-1H-indazol-6-yl}-5′-methoxyspiro[cyclopropane-1,3′-indol]-2′(1′H)-one]"
87 nM,210.2116,98.84,"COc1ccc2c(c1)[C@]1(C[C@H]1c1ccc3c(Nc4cn(C)nc4C(F)(F)F)n[nH]c3c1)C(=O)N2 [Example 64, (1R,2S)-5′-methoxy-2-(3-{[1-methyl-3-(trifluoromethyl)-1H-pyrazol-4-yl]amino)-1H-indazol-6-yl)spiro[cyclopropane-1,3′-indol]-2′(1′H)-one]"
44.2 nM,82.48,5.356,COc1ccc2c(c1)[C@]1(C[C@H]1c1ccc3c(Nc4cnn(C)c4)n[nH]c3c1)C(=O)N2 [Example 65]
2340 nM,21.37,7.607,"COc1ccc2c(c1)[C@]1(C[C@H]1c1ccc3c(Nc4cn(C)nc4C#N)n[nH]c3c1)C(=O)N2 [Example 66, 4-({6-[(1R,2S)-5′-methoxy-2′-oxo-1′,2′-dihydrospiro[cyclopropane-1,3′-indol]-2-yl]-1H-indazol-3-yl}amino)-1-methyl-1H-pyrazole-3-carbonitrile]"
3.31 nM,293.0556,37.14,COc1ccc2c(c1)[C@]1(C[C@H]1c1ccc3c(Nc4cc(C)nn4C)n[nH]c3c1)C(=O)N2 [Example 74]
157 nM,173.4097,23.28,"COc1ccc2c(c1)[C@]1(C[C@H]1c1ccc3c(Nc4c(OC)cnn4C)n[nH]c3c1)C(=O)N2 [Example 75, (1R,2S)-5′-methoxy-2-{3-[(4-methoxy-1-methyl-1H-pyrazol-5-yl)amino]-1H-indazol-6-yl}spiro[cyclopropane-1,3′-indol]-2′(1′H)-one]"
6.21 nM,187.8524,38.55,"COc1ccc2c(c1)[C@]1(C[C@H]1c1ccc3c(Nc4nc(C)cnc4C)n[nH]c3c1)C(=O)N2.O=C(O)C(F)(F)F [Example 82, (1R,2S)-2-{3-[(3,6-dimethylpyrazin-2-yl)amino]-1H-indazol-6-yl}-5′-methoxyspiro[cyclopropane-1,3′-indol]-2′(1′H)-one]"
17.8 nM,1505.334,44.33,"COc1ccc2c(c1)[C@]1(C[C@H]1c1ccc3c(Nc4nnccc4OC)n[nH]c3c1)C(=O)N2 [Example 90, (1R,2S)-5′-methoxy-2-{3-[(4-methozypyridazin-3-yl)amino]-1H-indazol-6-yl}spiro[cyclopropane-1,3′-indol]-2′(1′H)-one]"
8.84 nM,132.8355,76.36,"CCn1nc(C2CC2)cc1Nc1n[nH]c2cc([C@@H]3C[C@@]34C(=O)Nc3ccc(OC)cc34)ccc12 [Example 92, (1R,2S)-2-{3-[(3-cyclopropyl-1-ethyl-1H-pyrazol-5-yl)amino]-1H-indazol-6-yl}-5′-methoxyspiro[cyclopropane-1,3′-indol]-2′(1′H)-one]"
24.3 nM,1733.361,1055.053,"COc1ccc2c(c1)[C@]1(C[C@H]1c1ccc3c(Nc4nc(CC(C)(C)O)nc(N5CCOCC5)c4OC)n[nH]c3c1)C(=O)N2 [Example 93, (1R,2S)-2-(3-{[2-(2-hydroxy-2-methylpropyl)-5-methoxy-6-(morpholin-4-yl)pyrimidin-4-yl]amino}-1H-indazol-6-yl)-5′-methoxyspiro[cyclopropane-1,3′-indol]-2′(1′H)-one]"
6.16 nM,114.7355,74.7,"COc1ccc2c(c1)[C@]1(C[C@H]1c1ccc3c(Nc4cc(N5CCOCC5)nc(C(C)C)n4)n[nH]c3c1)C(=O)N2 [Example 102, (1R,2S)-5′-methoxy-2-(3-{[6-(morpholin-4-yl)-2-(propan-2-yl)pyrimidin-4-yl]amino}-1H-indazol-6-yl)spiro[cyclopropane-l,3′-indol]-2′(1′H)-one]"

Structure (SMILES),IC50 (human recombinant PLK4),[Aurora A IC50 (nM)]/[PLK4 IC50 (nM)] [1],[Aurora B IC50 (nM)]/[PLK4 IC50 (nM)] [2]
"COc1ccc2c(c1)[C@]1(C[C@H]1c1ccc3c(Nc4nn(C)cc4OC)n[nH]c3c1)C(=O)N2 [Example 79, (1R,2S)-5′-methoxy-2-{3-[(4-methoxy-1-methyl-1H-pyrazol-3-yl)amino]-1H-indazol-6-yl}spiro[cyclopropane-1,3′-indol]-2′(rH)-one]",91.9 nM,210.5378,6.986

# Reference: patent publication US20230365537A1, “POLO LIKE KINASE 4 INHIBITORS” (ORIC Pharmaceuticals, Inc., priority 2021, published 2023)
